Source: PMC4707489, “A novel cell-penetrating peptide suppresses breast tumorigenesis by inhibiting β-catenin/LEF-1 signaling” (Scientific Reports, 2016)

What was measured:
MCF-7 cells [1] = experiment: Cell growth (CCK-8); format: cell-based, human
Protocol: Cell growth was analyzed using 2-(2-methoxy-4-nitrophenyl)-3-(4-nitroph enyl)-5-(2,4-disulfophenyl)-2H-tetrazolium, monosodium salt, and the Cell Counting Kit-8 (CCK-8, Sigma). […] After culturing for another 48 hr, cell growth was analyzed by CCK-8 and the optical density was detected at 450 nm. The growth ratio was normalized to the cells without treatment.

MCF-7 cells [2] = experiment: Wound-healing migration assay; format: cell-based, human; settings: MCF-7, 100 μmol/l, 48 hr post-transfection, vs control or TAT-NLS-BLBD-6m (Fig. 3d)
Protocol: (§1) Transwell chambers of […] pore size were used in the in vitro invasion assay. MCF-7 and MDA-MB-231 cells were seeded onto the upper chamber and incubated with TAT-NLS-BLBD-6 and TAT-NLS-BLBD-6m peptide and 10% fetal bovine serum medium were added to the bottom chamber well. After 24 hr, cells invading the lower chamber were fixed with 4% paraformaldehyde solution and stained with 0.1% crystal violet for 30 min at 37 °C. Three random field images were obtained by microscopy, and the number of invading cells were counted. For the migration assay, MCF-7 and MDA-MB-231 cells were seeded onto 6-well plates. After 24 hr, an artificial wound was created using a 10-μl pipette tip, and the wound was incubated with TAT-NLS-BLBD-6 or TAT-NLS-BLBD-6m for 24 hr at 37 °C. The images of wound healing were captured by microscopy, and the wound healing distances were calculated by Image J (U.S. National Institutes of Health, Bethesda, MD, USA). For the colony formation assay, MCF-7 and MDA-MB-231 cells were seeded into 10-cm dishes with the medium containing TAT-NLS-BLBD-6 or TAT-NLS-BLBD-6m. After 2 weeks, cells were fixed with 4% paraformaldehyde solution and stained with 0.1% crystal violet for 30 min at 37 °C.

MDA-MB-231 cells [3] = experiment: Wound-healing migration assay; format: cell-based, human; settings: MDA-MB-231, 100 μmol/l, 48 hr post-transfection, vs control or TAT-NLS-BLBD-6m (Fig. 3d)
Protocol: as §1

MCF-7 cells [4] = experiment: Colony-formation assay; format: cell-based, human; settings: MCF-7, 100 μmol/l, 14 day post-transfection (Fig. 3e)
Protocol: as §1

MDA-MB-231 cells [5] = experiment: Colony-formation assay; format: cell-based, human; settings: MDA-MB-231, 100 μmol/l, 14 day post-transfection (Fig. 3e)
Protocol: as §1

[6] = tested on: β-catenin/TCF4/LEF downstream genes; experiment: Q-PCR of downstream genes in ZR-75-30; format: cell-based, human; settings: ZR-75-30, 100 μmol/l, 48 hr post-transfection, relative to TAT-NLS-BLBD-6m (Fig. 6g)
Protocol: Total RNA was isolated by Trizol reagent (Invitrogen, Carlsbad, CA, USA) and reverse transcribed to produce cDNA using the Deoxy + HiSpec reverse transcriptase kit (Yeastern, Taipei, Taiwan) according to the manufacturer instructions. Q-PCR was analyzed with SYBR Green Master Mix (Applied Biosystems, Stockholm, Sweden) and subjected to quantitation in an […]. The primers used for PCR are given in Supplementary Table S5 online. The Q-PCR data were normalized to 18S cDNA levels.

H-TAT-NLS-ATDEMIPF-NH2 [TAT-NLS-BLBD-6]
cell growth (MCF-7 cells [1]; 75 μmol/l peptide, MCF-7, CCK-8, means of three experiments (Fig. 1b)): inhibited the growth
time and dose dependence of cell growth (MCF-7 cells [1]; MCF-7, indicated concentrations, 24, 48 and 72 hr (Fig. 1c,d)): inhibited breast cancer cell growth in a time- and dose-dependent manner
migration (wound healing) (MCF-7 cells [2]): inhibited the mobility
migration (wound healing) (MDA-MB-231 cells [3]): inhibited the mobility
colony formation (MCF-7 cells [4]): inhibited the mobility and proliferation
colony formation (MDA-MB-231 cells [5]): inhibited the mobility and proliferation
expression of β-catenin/TCF4/LEF downstream genes [6]: inhibits
cell growth of normal mammary epithelial cells (H184B5F5/M10 cells): did not inhibit the growth
